Structures can show the parent of a compound that is named as a salt. Where two headings read alike, the source gives them in different places.
How the values were obtained:
tubulin [1] = test: Inhibition of tubulin polymerization (turbidimetry); type: biochemical, bovine
M14 melanoma = test: Cytotoxicity, M14
SF-295 CNS cancer = test: Cytotoxicity, SF-295; conditions: read-out: cytotoxicity GI50, SF-295, 50% growth inhibition, average of two determinations, 8640 min, 8640 min
CAKI-1 renal cancer = test: Cytotoxicity, CAKI-1
[2] = system: DMS 273 small cell lung cancer; test: Cytotoxicity, DMS 273; conditions: read-out: cytotoxicity GI50, DMS 273, 50% growth inhibition, average of two determinations, 8640 min, 8640 min
OVCAR-3 ovarian cancer = test: Cytotoxicity, OVCAR-3
COLO 205 colon cancer = test: Cytotoxicity, COLO 205; conditions: read-out: cytotoxicity GI50, COLO 205, 50% growth inhibition, average of two determinations, 8640 min, 8640 min
HL-60 (TB) leukemia = test: Cytotoxicity, HL-60(TB) leukemia; conditions: read-out: cytotoxicity GI50, HL-60(TB), 50% growth inhibition, average of two determinations, 8640 min, 8640 min
[3] = Stability in DMSO solution at room temperature (NMR); type: physicochemical; conditions: protected from light, read-out: formation of the cis isomer (1a)
Method: The cytotoxic compounds gave reproducible results in the tubulin polymerization assay with the exception of the trans stilbenes 1b and 6n. […] The cytotoxic properties of these two agents may similarly result from chemical changes in solution. […] The ratio of 6n:5n was 1:1 after 24 hours of the dissolution of pure 6n in DMSO at room temperature.

tubulin [4] = test: Inhibition of [3H]colchicine binding to tubulin (DEAE-filter); design: species or system bovine
tubulin [5] = conditions: cited from earlier work
MLM melanoma = test: MTT cytotoxicity assay, MLM; conditions: […], read-out: Cytotoxicity ED50, MLM
A-549 lung carcinoma = test: MTT cytotoxicity assay, A-549; conditions: Homo sapiens, A549, […], read-out: Cytotoxicity ED50, A-549
MCF-7 breast carcinoma = test: MTT cytotoxicity assay, MCF-7; conditions: Homo sapiens, MCF7, […], read-out: Cytotoxicity ED50, MCF-7
[6] = system: HT-29 colon adenocarcinoma; test: MTT cytotoxicity assay, HT-29; conditions: Homo sapiens, HT-29, […], read-out: Cytotoxicity ED50, HT-29
[7] = Table X, different glutamate preparation (1M monosodium glutamate and GTP), Hydrochloride, read-out: inhibn of tubulin polymn IC50 (±SD)
[8] = benzylanilines, Table X series, read-out: tubulin polymerization IC50
[9] = read-out: cytotoxicity GI50, M14; 50% growth inhibition; average of two determinations; 8640 min
[10] = read-out: cytotoxicity GI50, CAKI-1, 50% growth inhibition, average of two determinations, 8640 min, Hydrochloride
[11] = read-out: cytotoxicity GI50, OVCAR-3, 50% growth inhibition, average of two determinations, 8640 min, Hydrochloride
[12] = read-out: cytotoxicity GI50, M14, 50% growth inhibition, average of two determinations, 8640 min, Hydrochloride
[13] = Table X, different glutamate preparation (1M monosodium glutamate and GTP), read-out: inhibn of tubulin polymn IC50 (±SD)
[14] = read-out: cytotoxicity GI50, CAKI-1; 50% growth inhibition; average of two determinations; 8640 min
[15] = read-out: cytotoxicity GI50, OVCAR-3; 50% growth inhibition; average of two determinations; 8640 min
[16] = read-out: cytotoxicity GI50, M14, 50% growth inhibition, average of two determinations, 8640 min
[17] = read-out: cytotoxicity GI50, OVCAR-3, 50% growth inhibition, average of two determinations, 8640 min
[18] = read-out: cytotoxicity GI50, CAKI-1, 50% growth inhibition, average of two determinations, 8640 min

| SMILES | IC50 (tubulin [1]; [8]) [µM] | GI50 (M14 melanoma; [9]) [µM] | IC50 (tubulin [1]; [13]) [µM] | GI50 (SF-295 CNS cancer) [µM] | GI50 (CAKI-1 renal cancer; [14]) [µM] | GI50 [2] [µM] | GI50 (OVCAR-3 ovarian cancer; [15]) [µM] | GI50 (COLO 205 colon cancer) [µM] | GI50 (HL-60 (TB) leukemia) [µM] | further results |
| --- | --- | --- | --- | --- | --- | --- | --- | --- | --- | --- |
| COc1ccc(NCc2cc(OC)c(OC)c(OC)c2)cc1 [110c, 4-Methoxy-N-(3,4,5-trimethoxybenzyl)aniline Hydrochloride] | 8.9 | 2.38 | – | – | – | – | – | – | – | IC50 (tubulin [1]; [7]): 8.9 µM; GI50 (SF-295 CNS cancer; Hydrochloride): 2.32 µM; GI50 (CAKI-1 renal cancer; [10]): 2.5 µM; GI50 ([2]; Hydrochloride): 0.534 µM; GI50 (OVCAR-3 ovarian cancer; [11]): 1.96 µM; GI50 (COLO 205 colon cancer; Hydrochloride): 1.66 µM; GI50 (HL-60 (TB) leukemia; Hydrochloride): 0.834 µM |
| COc1cc(CNc2ccc(SC)cc2)cc(OC)c1OC [110e, 4-Methylthio-N-(3,4,5-trimethoxybenzyl)aniline Hydrochloride] | 16 | – | – | – | – | – | – | – | – | IC50 (tubulin [1]; [7]): 16 µM; GI50 (M14 melanoma; [12]): 4.84 µM; GI50 (SF-295 CNS cancer; Hydrochloride): 3.41 µM; GI50 (CAKI-1 renal cancer; [10]): 16.3 µM; GI50 ([2]; Hydrochloride): 4.91 µM; GI50 (OVCAR-3 ovarian cancer; [11]): 4.85 µM; GI50 (COLO 205 colon cancer; Hydrochloride): 3.6 µM; GI50 (HL-60 (TB) leukemia; Hydrochloride): 3.29 µM |
| CCCc1ccc(N=Cc2cc(OC)c(OC)c(OC)c2)cc1 [108g, 4-n-Propyl-N-(3,4,5-trimethoxybenzylidene)aniline] | – | > 100 | > 40 | > 100 | > 100 | > 100 | > 100 | > 100 | 22.6 | – |
| COc1cc(C=Nc2ccc(C(C)C)cc2)cc(OC)c1OC [108f, 4-Isopropyl-N-(3,4,5-trimethoxybenzylidene)aniline] | – | > 100 | > 40 | > 100 | > 100 | 52.5 | > 100 | > 100 | > 100 | – |
| COc1ccc(/C=C/c2cc(OC)c(OC)c(OC)c2)cc1O [compound 1b, reference compound] | – | – | – | – | – | – | – | – | – | degraded at […] ([3]; four weeks): ~10%; degraded at 336 h ([3]; two weeks): ~3% |
| CCOc1ccc(NCc2cc(OC)c(OC)c(OC)c2)cc1 [109d, 4-Ethoxy-N-(3,4,5-trimethoxybenzyl)aniline] | – | – | 12 | 0.274 | 2.04 | 0.296 | – | 0.432 | 0.296 | GI50 (M14 melanoma; [16]): 0.403 µM; GI50 (OVCAR-3 ovarian cancer; [17]): 0.34 µM |
| CCOc1ccc(NCc2cc(OC)c(OC)c(OC)c2)cc1 [110d, 4-Ethoxy-N-(3,4,5-trimethoxybenzyl)aniline Hydrochloride] | 11 | – | – | – | – | – | – | – | – | IC50 (tubulin [1]; [7]): 11 µM; GI50 (M14 melanoma; [12]): 0.532 µM; GI50 (SF-295 CNS cancer; Hydrochloride): 0.418 µM; GI50 (CAKI-1 renal cancer; [10]): 1.05 µM; GI50 ([2]; Hydrochloride): 0.961 µM; GI50 (OVCAR-3 ovarian cancer; [11]): 0.464 µM; GI50 (COLO 205 colon cancer; Hydrochloride): 0.538 µM; GI50 (HL-60 (TB) leukemia; Hydrochloride): 0.448 µM |
| CCOc1ccc(N=Cc2cc(OC)c(OC)c(OC)c2)cc1 [108d, 4-Ethoxy-N-(3,4,5-trimethoxybenzylidene)aniline] | – | > 100 | > 40 | > 100 | > 100 | > 100 | > 100 | – | > 100 | – |
| COc1ccc(N=Cc2cc(OC)c(OC)c(OC)c2)cc1 [108c, 4-Methoxy-N-(3,4,5-trimethoxybenzylidene)aniline] | – | – | > 40 | – | > 100 | 33 | > 100 | – | – | – |
| CCc1ccc(N=Cc2cc(OC)c(OC)c(OC)c2)cc1 [108b, 4-Ethyl-N-(3,4,5-trimethoxybenzylidene)aniline] | – | > 100 | > 40 | > 100 | > 100 | > 100 | > 100 | – | – | – |
| COc1ccc(/C=C\c2cc(OC)c(OC)c(OC)c2)cc1O [compound 1a, reference compound] | – | – | – | – | – | – | – | – | – | inhibition of colchicine binding (in words) (tubulin [4]): nearly total inhibition of colchicine binding; competitive inhibition of colchicine binding (tubulin [5]): competitively inhibit the binding of radiolabeled colchicine to tubulin; IC50 (MLM melanoma): 14 pM; IC50 (A-549 lung carcinoma): 1.2 pM; IC50 (MCF-7 breast carcinoma): 3.8 pM; IC50 [6]: 12 pM |
| CCc1ccc(NCc2cc(OC)c(OC)c(OC)c2)cc1 [110b, 4-Ethyl-N-(3,4,5-trimethoxybenzyl)aniline Hydrochloride] | – | – | – | – | – | – | – | – | – | IC50 (tubulin [1]; [7]): 7.2 µM; IC50 (tubulin [1]; benzylanilines, Table X series, Hydrochloride, read-out: tubulin polymerization IC50): 7.2 µM; GI50 (M14 melanoma; [12]): 0.437 µM; GI50 (SF-295 CNS cancer; Hydrochloride): 0.339 µM; GI50 ([2]; Hydrochloride): 0.818 µM; GI50 (OVCAR-3 ovarian cancer; [11]): 0.405 µM; GI50 (COLO 205 colon cancer; Hydrochloride): 0.352 µM; GI50 (HL-60 (TB) leukemia; Hydrochloride): 0.245 µM |
| COc1ccc(NCc2cc(OC)c(OC)c(OC)c2)cc1 [109c, 4-Methoxy-N-(3,4,5-trimethoxybenzyl)aniline] | – | – | 4.6 | 0.266 | – | 0.141 | – | 0.235 | 0.115 | GI50 (CAKI-1 renal cancer; [18]): 0.458 µM; GI50 (OVCAR-3 ovarian cancer; [17]): 0.363 µM |
| COc1cc(CNc2ccc(SC)cc2)cc(OC)c1OC [109e, 4-Methylthio-N-(3,4,5-trimethoxybenzyl)aniline] | – | – | > 40 | 7.28 | – | 3.09 | – | 3.88 | 3.7 | GI50 (M14 melanoma; [16]): 5.26 µM; GI50 (CAKI-1 renal cancer; [18]): 32 µM; GI50 (OVCAR-3 ovarian cancer; [17]): 5.93 µM |
| CCc1ccc(NCc2cc(OC)c(OC)c(OC)c2)cc1 [109b, 4-Ethyl-N-(3,4,5-trimethoxybenzyl)aniline] | 3 | – | 3 | 0.266 | 0.354 | 0.135 | – | 0.344 | 0.168 | GI50 (M14 melanoma; [16]): 0.315 µM; GI50 (OVCAR-3 ovarian cancer; [17]): 0.283 µM |
| COc1cc(CNc2ccc(C)cc2)cc(OC)c1OC [109a, 4-Methyl-N-(3,4,5-trimethoxybenzyl)aniline] | 6 | – | 6 | 0.163 | – | 0.0926 | – | 0.152 | 0.122 | GI50 (M14 melanoma; [16]): 0.15 µM |
